According to US11773129B2, “Methods of preventing or treating atherosclerosis with inhibitors of specific isoenzymes of human neuraminidase” (THE GOVERNORS OF THE UNIVERSITY OF ALBERTA, priority 2017, dated 2023):
Read-outs that look alike come from different tables or passages of the source.

How the values were obtained:
Assay type in all cases: biochemical
NEU1 = molecular target: T1, NEU1 (Homo sapiens, UniProt Q99519); experiment: IC50 inhibition assay using 4MU-NANA as the substrate, NEU1
T1 construct: made in house; host or cells: HEK293 (lentiviral transduction), crude lysate
Protocol: Two weeks after transduction cells were harvested and a crude lysate showing ˜200 nmol/h mg of sialidase activity used in experiments.
Assays were performed with duplicates for each point and IC50 was obtained by plotting the data with Graphpad™ Prism 5.0.

NEU3 = molecular target: T2, NEU3 (Homo sapiens, UniProt Q9UQ49); experiment: IC50 inhibition assay using 4MU-NANA as the substrate, NEU3; parameters: MBP (N); made in house; host or cells: E. coli; details: 4MU-NANA as the substrate; read-out: IC50 NEU3
T2 sequence (Q9UQ49 1-428): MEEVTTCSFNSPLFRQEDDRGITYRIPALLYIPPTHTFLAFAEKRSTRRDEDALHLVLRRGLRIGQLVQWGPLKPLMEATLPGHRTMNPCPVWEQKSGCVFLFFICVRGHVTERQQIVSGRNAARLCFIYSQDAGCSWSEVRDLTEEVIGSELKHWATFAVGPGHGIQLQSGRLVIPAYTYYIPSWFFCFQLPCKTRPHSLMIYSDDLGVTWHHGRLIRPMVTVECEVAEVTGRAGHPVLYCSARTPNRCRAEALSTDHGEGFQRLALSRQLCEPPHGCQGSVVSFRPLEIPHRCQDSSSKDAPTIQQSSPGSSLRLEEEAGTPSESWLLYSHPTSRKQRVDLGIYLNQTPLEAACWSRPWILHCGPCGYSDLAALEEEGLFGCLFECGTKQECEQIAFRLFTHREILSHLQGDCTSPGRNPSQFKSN

NEU1, NEU2, NEU3, NEU4 = experiment: Isoenzyme specificity/selectivity from 4MU-NANA IC50 across the four human neuraminidases
NEU4 = molecular target: T3, NEU4 (Homo sapiens, UniProt Q8WWR8); experiment: IC50 inhibition assay using 4MU-NANA as the substrate, NEU4; parameters: GST; made in house; host or cells: E. coli; details: 4MU-NANA as the substrate; read-out: IC50 NEU4
T3 sequence (Q8WWR8 1-484): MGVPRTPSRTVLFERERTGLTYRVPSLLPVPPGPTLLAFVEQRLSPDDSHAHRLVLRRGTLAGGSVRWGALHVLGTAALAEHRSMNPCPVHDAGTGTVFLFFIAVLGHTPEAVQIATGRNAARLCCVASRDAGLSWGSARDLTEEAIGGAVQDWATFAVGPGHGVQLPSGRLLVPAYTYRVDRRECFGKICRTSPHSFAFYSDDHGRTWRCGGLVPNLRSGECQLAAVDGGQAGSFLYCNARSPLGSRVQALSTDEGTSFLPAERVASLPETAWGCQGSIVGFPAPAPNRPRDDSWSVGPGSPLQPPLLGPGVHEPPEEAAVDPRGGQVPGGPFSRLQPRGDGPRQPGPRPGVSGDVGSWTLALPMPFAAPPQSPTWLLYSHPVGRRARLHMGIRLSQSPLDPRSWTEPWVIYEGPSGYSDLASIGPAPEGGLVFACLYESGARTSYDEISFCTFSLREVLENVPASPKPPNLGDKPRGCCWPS

[1] = 4MU-NANA as the substrate, read-out: IC50 NEU1
[2] = isoenzyme(s) the compound is specific for, dual (bispecific) when ratio of IC50 is about 3 or less

IC50 (NEU1; [1])	IC50 (NEU3)	Target (NEU1, NEU2, NEU3, NEU4; [2])	IC50 (NEU4)	IC50 (NEU1; target isoenzyme NEU1, 4MU-NANA substrate, read-out: IC50 [μM] NEU1)	SMILES	Target (NEU1, NEU2, NEU3, NEU4)
0.58 ± 0.03 µM	< 1 µM	–	–	–	CCCCC(CC)C(=O)N[C@H]1[C@H]([C@H](O)[C@H](O)CO)OC(C(=O)O)=C[C@@H]1O (mixture of isomers) [compound 75, 5-(2-Ethyl)hexanamido(SIR)-2,6-anhydro-3,5-dideoxy-d-glycero-d-galacto-non-2-enonic acid]	–
0.55 ± 0.07 µM	< 1 µM	–	–	–	CCCCC(C)C(=O)N[C@H]1[C@H]([C@H](O)[C@H](O)CO)OC(C(=O)O)=C[C@@H]1O (mixture of isomers) [compound 72, 5-(2-Methyl)hexanamido(S/R)-2,6-anhydro-3,5-dideoxy-d-glycero-d-galacto-non-2-enonic acid]	–
1.8 ± 0.2 µM	–	–	–	–	CCCCC(CC)C(=O)N[C@H]1[C@H]([C@H](O)[C@H](O)CNC(C)=O)OC(C(=O)O)=C[C@@H]1O (mixture of isomers) [compound 73, 5-(2-Ethyl)hexanamido(S/R)-9-acetanamido-2,6-anhydro-3,5-dideoxy-d-glycero-d-galacto-non-2-enonic acid]	–
0.42 ± 0.07 µM	< 1 µM	–	–	–	CCCCC(C)C(=O)N[C@H]1[C@H]([C@H](O)[C@H](O)CNC(C)=O)OC(C(=O)O)=C[C@@H]1O (mixture of isomers) [compound 74, 5-(2-Methyl)hexanamido(S/R)-9-acetanamido-2,6-anhydro-3,5-dideoxy-d-glycero-d-galacto-non-2-enonic acid]	–
190 ± 40 µM	9.3 ± 0.8 µM	NEU3/ NEU4	28 ± 3 µM	–	CC(=O)N[C@H]1[C@H]([C@H](O)[C@H](O)Cn2cc(-c3ccc(N(C)C)cc3)nn2)OC(C(=O)O)=C[C@@H]1O [7a]	–
59 ± 5 µM	5.5 ± 0.5 µM	NEU3/ NEU4	11 ± 1 µM	–	CC(=O)Nc1ccc(-c2cn(C[C@@H](O)[C@@H](O)[C@@H]3OC(C(=O)O)=C[C@H](O)[C@H]3NC(C)=O)nn2)cc1 [7b]	–
76 ± 16 µM	8.7 ± 0.9 µM	NEU3/ NEU4	12 ± 1 µM	–	CC(=O)N[C@H]1[C@H]([C@H](O)[C@H](O)Cn2cc(-c3ccc(N)cc3)nn2)OC(C(=O)O)=C[C@@H]1O [7c]	–
51 ± 7 µM	8.2 ± 1.3 µM	NEU3/ NEU4	3.9 ± 0.4 µM	–	CC(=O)N[C@H]1[C@H]([C@H](O)[C@H](O)Cn2cc(-c3ccc(C)cc3)nn2)OC(C(=O)O)=C[C@@H]1O [7d]	–
47 ± 6 µM	5.9 ± 0.4 µM	NEU3/ NEU4	2.6 ± 0.3 µM	–	COc1ccc(-c2cn(C[C@@H](O)[C@@H](O)[C@@H]3OC(C(=O)O)=C[C@H](O)[C@H]3NC(C)=O)nn2)cc1 [7e, 5-Acetamido-(4-methoxyphenyl)-2,6-anhydro-3,5-dideoxy-b-glycero-D-galacto-non-2-enonic acid]	–
> 500 µM	> 500 µM	–	> 500 µM	–	CCC(=O)N[C@H]1C=C(C(=O)O)O[C@@H]([C@H](O)[C@H](O)CO)[C@@H]1NC(C)=O [25a, 5-Acetamido-2,6-anhydro-4-propionamido-3,4,5-trideoxy-D-glycero-D-galacto-non-2-enonic acid]	–
> 500 µM	> 500 µM	–	> 500 µM	–	CCCCC(=O)N[C@H]1C=C(C(=O)O)O[C@@H]([C@H](O)[C@H](O)CO)[C@@H]1NC(C)=O [25b, 5-Acetamido-2,6-anhydro-4-pentanamido-3,4,5-trideoxy-D-glycero-D-galacto-non-2-enonic acid]	–
> 500 µM	> 500 µM	–	> 500 µM	–	CC(=O)N[C@H]1[C@H]([C@H](O)[C@H](O)CO)OC(C(=O)O)=C[C@@H]1NC(=O)C1CC1 [25c, 5-Acetamido-2,6-anhydro-4-cyclopropanecarboxamido-3,4,5-trideoxy-b-glycero-D-galacto-non-2-enonic acid]	–
> 500 µM	> 500 µM	–	> 500 µM	–	CC(=O)N[C@H]1[C@H]([C@H](O)[C@H](O)CO)OC(C(=O)O)=C[C@@H]1NC(=O)C1CCC1 [25d, 5-Acetamido-2,6-anhydro-4-cyclobutanecarboxamido-3,4,5-trideoxy-D-glycero-D-galacto-non-2-enonic acid]	–
0.42 ± 0.06 µM	–	NEU1	440 ± 150 µM	0.4 µM	CCCCCC(=O)N[C@H]1[C@H]([C@H](O)[C@H](O)CO)OC(C(=O)O)=C[C@@H]1O [compound 32, 5-Hexanamido-2,6-anhydro-3,5-dideoxy-D-glycero-D-galacto-non-2-enonic acid]	–
24 ± 2 µM	4.4 ± 0.9 µM	–	5.6 ± 0.8 µM	–	[N-]=[N+]=NCC(=O)N[C@@H]1C(O)C=C(C(=O)O)OC1C(O)C(O)CO (stereo partly drawn) [compound 40, 5-(N-2-azidoacetyl)-2,3,5-trideoxy-D-glycero-D-galacto-2-nonulopyranosonic acid]	–
> 500 µM	> 500 µM	–	110 ± 20 µM	–	Cc1ccc(-c2cn(CC(=O)N[C@@H]3C(O)C=C(C(=O)O)OC3C(O)C(O)CO)nn2)cc1 (some centres unmarked) [compound 42]	–
> 500 µM	430 ± 100 µM	–	130 ± 20 µM	–	Nc1ccc(-c2cn(CC(=O)N[C@@H]3C(O)C=C(C(=O)O)OC3C(O)C(O)CO)nn2)cc1 (some centres unmarked) [compound 46]	–
4 ± 0.5 µM	250 ± 90 µM	–	–	–	CCCC(=O)NCC(O)C(O)C1OC(C(=O)O)=CC(O)[C@H]1NC(C)=O (stereo partly drawn) [compound 49, 5-Acetamido-9-butyramido-2,6-anhydro-3,5-dideoxy-D-glycero-D-galacto-non-2-enonic acid]	–
–	96 ± 28 µM	–	230 ± 60 µM	–	CC(=O)N[C@@H]1C(O)C=C(C(=O)O)OC1C(O)C(O)CNC(=O)C(C)C (stereo partly drawn) [compound 53, 5-Acetamido-9-isobutyramido-2,6-anhydro-3,5-dideoxy-D-glycero-D-galacto-non-2-enonic acid]	–
2.5 ± 0.3 µM	72 ± 20 µM	–	130 ± 40 µM	–	CC(=O)N[C@@H]1C(O)C=C(C(=O)O)OC1C(O)C(O)CNC(=O)CC(C)C (stereo partly drawn) [compound 54, 5-Acetamido-9-(3-methylbutanamido)-2,6-anhydro-3,5-dideoxy-D-glycero-D-galacto-non-2-enonic acid]	–
0.35 ± 0.03 µM	–	NEU1	> 500 µM	–	CCCCC(=O)N[C@H]1[C@H]([C@H](O)[C@H](O)CNC(C)=O)OC(C(=O)O)=C[C@@H]1O [compound 67, 5-Pentanamido-9-acetamido-2,6-anhydro-3,5-dideoxy-D-glycero-D-galacto-non-2-enonic acid]	–
0.14 ± 0.01 µM	–	NEU1	170 ± 100 µM	–	CCCCCC(=O)N[C@H]1[C@H]([C@H](O)[C@H](O)CNC(C)=O)OC(C(=O)O)=C[C@@H]1O [compound 68, 5-Hexanamido-9-acetamido-2,6-anhydro-3,5-dideoxy-D-glycero-D-galacto-non-2-enonic acid]	–
0.4 ± 0.1 µM	–	NEU1	270 ± 70 µM	–	CCCCCC(=O)N[C@H]1[C@H]([C@H](O)[C@H](O)CNC(=O)CC)OC(C(=O)O)=C[C@@H]1O [compound 69, 5-Hexanamido-9-propionamido-2,6-anhydro-3,5-dideoxy-d-glycero-d-galacto-non-2-enonic acid]	–
14 ± 2 µM	150 ± 20 µM	–	47 ± 7 µM	–	CC(C)CCC(=O)N[C@H]1[C@H]([C@H](O)[C@H](O)CO)OC(C(=O)O)=C[C@@H]1NC(=N)N [compound 71, 5-(4-methylpentanamido)-2,6-anhydro-4-guanidino-3,4,5-trideoxy-D-glycero-D-galacto-non-2-enonic acid]	–

SMILES	IC50 (NEU1; [1])	IC50 (NEU3)	Target (NEU1, NEU2, NEU3, NEU4; [2])	IC50 (NEU4)	IC50 (NEU1; target isoenzyme NEU1, 4MU-NANA substrate, read-out: IC50 [μM] NEU1)	Target (NEU1, NEU2, NEU3, NEU4)
CCCCCC(=O)NCC(O)C(O)C1OC(C(=O)O)=CC(O)[C@H]1NC(C)=O (stereo partly drawn) [compound 51, 5-Acetamido-9-hexanamido-2,6-anhydro-3,5-dideoxy-D-glycero-D-galacto-non-2-enonic acid]	–	83 ± 9 µM	–	290 ± 30 µM	–	NEU1
CCCCCc1cn(C[C@@H](O)[C@@H](O)[C@@H]2OC(C(=O)O)=C[C@H](O)[C@H]2NC(C)=O)nn1 [compound 63, 5-Acetamido-9-(4-pentyl)triazolyl-2,6-anhydro-3,5-dideoxy-d-glycero-d-galacto-non-2-enonic acid]	–	6.7 ± 1.2 µM	NEU3/ NEU4	2.6 ± 0.6 µM	–	–
